Values of other authors as cited in EP4119941A1, “HEMOGLOBIN ASSAY METHOD” (Sekisui Medical Co., Ltd., priority 2020, dated 2021).

Conditions: at 25°C

pKa: 7.55
Compound: O=S(=O)(O)CCNC(CO)(CO)CO [TES, N-tris(hydroxymethyl)methyl-2-aminoethanesulfonic acid]
